Results taken from paper PMC6756013, “B591, a novel specific pan-PI3K inhibitor, preferentially targets cancer stem cells” (Oncogene, 2019).

Key:
[1] = system: PI3K/Akt/mTORC1 and mTORC2 signaling in multiple cancer cell lines; assay: Western blot of PI3K downstream effectors in multiple tumor cell lines; format: cell-based; conditions: 5 h
Description: Fig. 2 B591 inhibits PI3K/Akt pathway in multiple cancer cell lines. a Representative images of Akt1 redistribution in IGF-1-treated cells in the absence or presence of B591. Scale bar represents 10 μm. Arrows indicate IGF-1-mediated membrane translocation detected by the image analysis algorithm. b Inhibition of mTORC1 and mTORC2 signaling in multiple cancer cell lines, exposed for 5 h to increasing concentrations of B591. c HepG2 cells were treated with DMSO or 20 μM of B591 for 5 h. Immunofluorescence (red) intensity reflects eIF4E subcellular distribution. Cells were visualized with high content reader. Representative images are shown, and scale bar represents 50 μm. d Nuclear-to-cytoplasmic ratio of eIF4E in five cancer cell lines was determined via high content reader. e The phosphorylation of AKT and ERK was determined by immunoblotting in RD cells in the presence of 10 μM of B591 after indicated time of exposure. f Inhibition of the phosphorylation of AKT and ERK in RD cells treated with B591, PI-103 or Rapamycin for 24 h was determined by immunoblotting
The key effectors downstream of PI3K were examined by western blot analysis in multiple tumor cell lines with different genetic background. […] Most recent study identified PtdIns(3,4,5)P3, which is generated by activated PI3K, as a direct upstream activator for mTORC2, highlighting the critical role of PI3K in mTORC2 activation. Therefore, the effect of B591 on mTORC2 signaling was evaluated by testing the phosphorylation levels of Akt at Ser473 and its substrate GSK3β at Ser9.

[2] = system: primary tumor cells dissociated from MDA-MB-231 xenografts replanted into NOD/SCID mice; assay: Limiting dilution assay of cells from treated MDA-MB-231 xenografts; format: in vivo; conditions: for number of tumor-bearing mice (number of recipient mice): cells from 16 mg/kg group, 3 months later
Description: Fig. 5 B591 abolishes tumor growth in vivo by eliminating CSCs. a MDA-MB-231 xenografts were treated with vehicle or B591 for 2 weeks, then the residual tumor tissue was harvested and dissociated into single cells for subsequent CSCs assays according with the flow chart. b–d Tumor weight and mice body weight were measured every 2 days during treatment. In the end of treatment, tumor tissues were collected and weighted (n = 8). e The CSCs markers of tumor cells were analyzed by flow cytometry. Only the live and non-mouse cell population was gated and analyzed. Data from three mice were plotted. f Mammosphere formation assay was carried out with the single cells. The relative mammosphere-formation ability is shown as percentage, and data represent mean ± SD. g The single cells from vehicle and 16 mg/kg of B591 group were replanted into NOD/SCID mice according to the indicating number, and 3 months later, tumors were counted for calculating the tumor-initiating frequency. h The CSCs markers and the downstream substrates of PI3K pathway were analyzed using the lysates from the primary xenografts by western blot analysis. ^**p < 0.01, difference versus vehicle-treated control group TEXT PRINTED IN THE PICTURE: (G) B591: 3(5) (Cell number: 200 000); 2(5) (Cell number: 20 000); 0(5) (Cell number: 2 000); 0(5) (Cell number: 200); TIF: 1/145 000
The primary tumor cells dissociated from xenografts were injected into the mammary fat pad of NOD/SCID mice in limiting dilutions.
In MDA-MB-231 xenografts experiment, 1 × 10^6 cells were incubated into the mammary fat pad of mice orthotopically. When the volume of tumor reached above 50 mm^3, the mice were randomly divided into three groups for introperitoneal (i.p.) injection with vehicle, 4 mg/kg and 16 mg/kg B591. The tumor volume and the body weight of mice were measured during the 2-weeks treatment. In the end of treatment, the mice were killed, and the tumor tissues were dissected and dissociated into single cell suspension with Dispase II (Roche, Basel, Switzerland) according with the manufacture’s protocol. Then these single cells were used for CSCs phenotype assay, ALDH activity assay, mammosphere formation assay and limiting dilution assay in vivo as described above.

MDA-MB-231 cells = assay: Cell cycle analysis; format: cell-based, human; conditions: 24 h
Description: MDA-MB-231 cells were seeded in six-well plates at a density of 4×10^5 cells per well. The next day, cells were treated with B591 (0, 2.5, 5, 10 μM) for 24 h. Then the cells were trypsinized, centrifuged at 300 g for 5 minutes and fixed in 1 ml of 70 % cold ethanol. After incubation at -20℃ overnight, the cells were collected by centrifugation at 500 g for 5 min and pellets were resuspended in 500 μl PBS containing 300 μg/ml of RNase (Sigma, MO, USA). After incubation at 37 ℃ for 30 min, the pellets were stained with 100 μg/ml of propidium iodine (Sigma, MO, USA) for 20 min. Cell cycle distribution was determined by flow cytometry (FACScaliber, Becton Dickinson).

IGF1R = IGF1R (Homo sapiens, UniProt P08069); assay: Biochemical kinase profiling (Life Technologies)
Chain of IGF1R (P08069 31-1367): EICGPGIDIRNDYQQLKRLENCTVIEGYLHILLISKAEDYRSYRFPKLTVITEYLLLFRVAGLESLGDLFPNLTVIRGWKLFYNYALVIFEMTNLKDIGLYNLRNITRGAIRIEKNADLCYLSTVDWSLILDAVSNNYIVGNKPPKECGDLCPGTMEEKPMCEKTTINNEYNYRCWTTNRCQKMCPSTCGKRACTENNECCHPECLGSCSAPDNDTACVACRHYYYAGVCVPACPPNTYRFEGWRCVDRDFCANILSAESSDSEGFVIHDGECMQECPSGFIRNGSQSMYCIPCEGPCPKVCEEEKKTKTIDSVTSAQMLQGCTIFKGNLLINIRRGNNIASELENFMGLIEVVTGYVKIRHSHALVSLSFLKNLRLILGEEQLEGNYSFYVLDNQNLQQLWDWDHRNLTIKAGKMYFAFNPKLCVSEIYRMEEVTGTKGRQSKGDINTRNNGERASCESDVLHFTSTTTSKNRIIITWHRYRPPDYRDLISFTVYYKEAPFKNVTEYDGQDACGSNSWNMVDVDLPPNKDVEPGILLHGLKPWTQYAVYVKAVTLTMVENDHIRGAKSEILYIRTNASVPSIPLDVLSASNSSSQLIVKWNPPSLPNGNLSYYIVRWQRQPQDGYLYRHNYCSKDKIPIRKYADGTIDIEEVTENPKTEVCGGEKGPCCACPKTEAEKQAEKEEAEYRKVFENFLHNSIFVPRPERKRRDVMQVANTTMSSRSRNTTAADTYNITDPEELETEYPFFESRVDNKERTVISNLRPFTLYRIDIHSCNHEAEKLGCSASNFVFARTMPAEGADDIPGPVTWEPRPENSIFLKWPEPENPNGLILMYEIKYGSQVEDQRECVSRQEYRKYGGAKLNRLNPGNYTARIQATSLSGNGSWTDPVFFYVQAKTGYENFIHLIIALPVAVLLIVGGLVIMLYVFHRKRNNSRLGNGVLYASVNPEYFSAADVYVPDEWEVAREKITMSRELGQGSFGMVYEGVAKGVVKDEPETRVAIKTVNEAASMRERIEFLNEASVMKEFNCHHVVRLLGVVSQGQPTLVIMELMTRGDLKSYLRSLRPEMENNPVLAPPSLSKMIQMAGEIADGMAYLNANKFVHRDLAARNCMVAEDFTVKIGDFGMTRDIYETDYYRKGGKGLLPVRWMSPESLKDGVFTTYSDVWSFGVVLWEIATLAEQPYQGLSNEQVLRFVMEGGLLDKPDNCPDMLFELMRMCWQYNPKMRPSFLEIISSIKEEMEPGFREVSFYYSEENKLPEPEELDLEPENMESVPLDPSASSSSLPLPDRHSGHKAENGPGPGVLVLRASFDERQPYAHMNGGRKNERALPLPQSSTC
Description: (§1) Purified PI3K Class I Lipid Kinase, including p110α/p85α, p110β/p85α, p110γ, and p110δ/p85α (Promega, Madison, WI, USA), was respectively incubated with B591 for 30 min at room temperature. The activity of PI3K was evaluated using a PI3-Kinase Activity ELISA kit (K-1000s, Echelon, Salt Lake City, UT, USA) according to the manufacture’s instructions. The assay is a competitive ELISA in which the signal is inversely proportional to the amount of PI(3,4,5)P3 produced. After the PI3-Kinase reactions are complete, reaction products are first mixed and incubated with a PI(3,4,5)P3 detector protein, then added to the PI(3,4,5)P3-coated microplate for competitive binding. A peroxidase-linked secondary detector and colorimetric detection is used to detect PI(3,4,5)P3 detector binding to the plate. The colorimetric signal is inversely proportional to the amount of PI(3,4,5)P3 produced by PI3-Kinase. The absorbance was measured at 450 nm with a Multilabel Reader (PerkinElmer, Waltham, MA, USA). ATP competition assays were executed with varying concentrations of ATP, and five concentrations of ATP were 5 μM, 25 μM, 50 μM, 100 μM, and 200 μM respectively. The IC50 values for inhibition of PI3Kβ by B591 were determined at indicated concentrations of ATP. In addition, B591 selectivity was tested against 39 kinases at Life Technologies.

EPHA2 = target: T1, EPHA2 (Homo sapiens, UniProt P29317); assay: Biochemical kinase profiling (Life Technologies)
T1 construct: purchased Life Technologies
T1 sequence (P29317 24-976): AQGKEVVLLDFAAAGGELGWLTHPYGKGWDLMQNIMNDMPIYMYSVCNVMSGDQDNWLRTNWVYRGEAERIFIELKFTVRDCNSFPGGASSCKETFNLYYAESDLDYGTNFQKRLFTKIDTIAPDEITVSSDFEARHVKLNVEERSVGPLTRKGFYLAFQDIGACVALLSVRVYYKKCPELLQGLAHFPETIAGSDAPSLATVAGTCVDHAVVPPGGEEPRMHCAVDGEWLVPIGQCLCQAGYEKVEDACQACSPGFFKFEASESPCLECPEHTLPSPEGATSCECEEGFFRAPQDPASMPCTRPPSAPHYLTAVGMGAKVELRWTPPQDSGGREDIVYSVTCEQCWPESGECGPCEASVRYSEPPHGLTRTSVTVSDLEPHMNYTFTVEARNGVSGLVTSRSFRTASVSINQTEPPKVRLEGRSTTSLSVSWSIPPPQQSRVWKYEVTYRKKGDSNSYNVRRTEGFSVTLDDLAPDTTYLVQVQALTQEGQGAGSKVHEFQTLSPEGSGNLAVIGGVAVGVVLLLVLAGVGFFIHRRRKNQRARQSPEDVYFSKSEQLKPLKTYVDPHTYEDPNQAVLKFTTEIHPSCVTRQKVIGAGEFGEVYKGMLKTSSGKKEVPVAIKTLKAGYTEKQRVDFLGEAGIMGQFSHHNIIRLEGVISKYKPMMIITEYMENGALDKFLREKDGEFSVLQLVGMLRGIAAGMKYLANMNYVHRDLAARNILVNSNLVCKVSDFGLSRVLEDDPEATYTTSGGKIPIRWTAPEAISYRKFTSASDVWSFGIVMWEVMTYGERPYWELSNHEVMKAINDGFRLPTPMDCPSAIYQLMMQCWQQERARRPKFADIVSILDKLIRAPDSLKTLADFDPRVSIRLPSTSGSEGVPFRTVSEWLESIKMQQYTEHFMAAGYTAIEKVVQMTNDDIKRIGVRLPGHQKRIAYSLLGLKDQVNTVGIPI
Description: as §1

PTK2 (FAK) = PTK2 (FAK) (Homo sapiens, UniProt Q05397); assay: Biochemical kinase profiling (Life Technologies)
Chain of PTK2 (FAK) (Q05397 whole entry): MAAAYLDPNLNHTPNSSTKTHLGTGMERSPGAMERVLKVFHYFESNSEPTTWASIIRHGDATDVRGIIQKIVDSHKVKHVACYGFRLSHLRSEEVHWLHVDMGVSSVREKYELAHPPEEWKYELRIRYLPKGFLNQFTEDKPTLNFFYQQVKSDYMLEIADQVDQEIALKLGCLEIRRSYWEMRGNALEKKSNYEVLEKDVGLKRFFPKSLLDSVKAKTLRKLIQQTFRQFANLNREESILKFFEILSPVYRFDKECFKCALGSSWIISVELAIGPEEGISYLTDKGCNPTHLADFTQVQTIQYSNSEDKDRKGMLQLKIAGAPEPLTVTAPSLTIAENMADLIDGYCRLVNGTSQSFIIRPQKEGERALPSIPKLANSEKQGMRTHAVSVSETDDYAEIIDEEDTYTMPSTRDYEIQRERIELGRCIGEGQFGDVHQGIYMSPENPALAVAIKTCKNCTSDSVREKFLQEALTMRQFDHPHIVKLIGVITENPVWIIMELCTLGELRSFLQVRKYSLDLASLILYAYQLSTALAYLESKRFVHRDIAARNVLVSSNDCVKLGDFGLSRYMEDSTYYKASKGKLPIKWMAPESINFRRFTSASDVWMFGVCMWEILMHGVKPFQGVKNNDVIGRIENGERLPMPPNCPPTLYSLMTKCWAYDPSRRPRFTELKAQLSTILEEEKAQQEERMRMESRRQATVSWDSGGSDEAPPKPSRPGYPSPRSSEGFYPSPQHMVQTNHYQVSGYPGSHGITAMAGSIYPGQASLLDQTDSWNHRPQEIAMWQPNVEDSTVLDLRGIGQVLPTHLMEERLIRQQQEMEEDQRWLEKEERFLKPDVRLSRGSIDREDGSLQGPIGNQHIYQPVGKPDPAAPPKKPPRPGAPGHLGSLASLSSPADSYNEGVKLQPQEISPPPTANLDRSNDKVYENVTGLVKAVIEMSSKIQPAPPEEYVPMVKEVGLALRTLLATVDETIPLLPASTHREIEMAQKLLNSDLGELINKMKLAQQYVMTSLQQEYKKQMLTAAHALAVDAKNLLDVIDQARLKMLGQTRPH
Description: as §1

FRAP1 (mTOR) = FRAP1 (mTOR) (Homo sapiens, UniProt P42345); assay: Biochemical kinase profiling (Life Technologies)
Description: as §1

FGFR3 = target: T2, FGFR3 (Homo sapiens, UniProt P22607); assay: Biochemical kinase profiling (Life Technologies)
T2 construct: purchased Life Technologies
T2 sequence (P22607 23-806): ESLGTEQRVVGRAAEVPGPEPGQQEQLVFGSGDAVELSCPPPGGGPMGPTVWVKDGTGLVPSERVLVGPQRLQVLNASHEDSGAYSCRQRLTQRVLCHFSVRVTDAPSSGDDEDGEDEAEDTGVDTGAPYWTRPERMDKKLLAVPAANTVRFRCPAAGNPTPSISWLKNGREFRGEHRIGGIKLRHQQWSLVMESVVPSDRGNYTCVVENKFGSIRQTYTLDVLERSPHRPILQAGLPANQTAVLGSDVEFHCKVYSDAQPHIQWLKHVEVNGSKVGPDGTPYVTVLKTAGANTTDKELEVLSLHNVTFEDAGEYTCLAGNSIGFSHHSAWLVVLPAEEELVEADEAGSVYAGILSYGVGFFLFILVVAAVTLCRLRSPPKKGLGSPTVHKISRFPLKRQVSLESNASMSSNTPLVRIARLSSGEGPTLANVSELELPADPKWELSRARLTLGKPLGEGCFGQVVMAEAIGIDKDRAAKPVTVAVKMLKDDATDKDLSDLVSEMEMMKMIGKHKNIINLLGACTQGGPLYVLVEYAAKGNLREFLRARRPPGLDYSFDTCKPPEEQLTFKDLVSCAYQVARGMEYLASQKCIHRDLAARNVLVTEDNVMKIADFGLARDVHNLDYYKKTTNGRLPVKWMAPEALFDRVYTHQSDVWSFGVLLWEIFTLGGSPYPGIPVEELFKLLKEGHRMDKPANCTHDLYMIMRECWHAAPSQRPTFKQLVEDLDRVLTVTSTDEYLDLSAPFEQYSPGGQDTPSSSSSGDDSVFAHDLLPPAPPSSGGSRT
Description: as §1

In the case of `Cc1cc2c(cc1C)[n+](Cc1ccccc1Br)cn2Cc1ccc2c(c1)CCO2.[Br-]` [B591, 3-(2-bromobenzyl)-1-((2,3-dihydrobenzofuran-5-yl)methyl) -5,6-dimethyl-1H-benzo[d]imidazol-3-ium bromide], the “PI3K/Akt/mTORC1 signaling (phosphorylation of 4E-BP1, S6K1, S6)” value [1] is reported as “effectively inhibited PI3K/Akt/mTORC1 signaling”, the “mTORC2 signaling: p-Akt (Ser473) and p-GSK3β (Ser9)” value ([1]; all tested cell types) is reported as “concentration-dependent decrease” and the “Phosphorylation of Akt at Thr308” value ([1]; increasing concentrations) is reported as “potently inhibited”. For the same compound, the “number of tumor-bearing mice (number of recipient mice)” value (“number of tumor-bearing mice” below) ([2]; cell number 2 000) was 0(5), the “number of tumor-bearing mice” value ([2]; cell number 20 000) was 2(5) and the “number of tumor-bearing mice” value ([2]; cell number 200 000) was 3(5). The “number of tumor-bearing mice” value ([2]; cell number 200) was 0(5), the “Reduction of tumor-initiating frequency versus vehicle” value ([2]; cells from B591-treated tumors) was “sevenfold reduction” and the Cell cycle distribution (MDA-MB-231 cells) was “effectively arrested cells in G0/G1 phase”. The IC50 (IGF1R) was > 500 µM, the IC50 (EPHA2) was > 500 µM and the IC50 (PTK2 (FAK)) was > 500 µM. The IC50 (FRAP1 (mTOR)) was > 500 µM and the IC50 (FGFR3) was > 500 µM.
